Reference: ChEMBL document CHEMBL3217607, “Discovery and structural modification of novel inhibitors of PTP1B inspired by the ACT fragment of scleritodermin A” (Medchemcomm, 2011)
pIC50: −log10 of the molar value.

Tests used:
[1] = target: T1, Tyrosine-protein phosphatase non-receptor type 1 (Homo sapiens, UniProt P18031); experiment: Inhibition of GST-tagged PTP1B (unknown origin) using pNPP as substrate measured for 2 mins by spectrophotometry
T1 sequence (P18031 whole entry): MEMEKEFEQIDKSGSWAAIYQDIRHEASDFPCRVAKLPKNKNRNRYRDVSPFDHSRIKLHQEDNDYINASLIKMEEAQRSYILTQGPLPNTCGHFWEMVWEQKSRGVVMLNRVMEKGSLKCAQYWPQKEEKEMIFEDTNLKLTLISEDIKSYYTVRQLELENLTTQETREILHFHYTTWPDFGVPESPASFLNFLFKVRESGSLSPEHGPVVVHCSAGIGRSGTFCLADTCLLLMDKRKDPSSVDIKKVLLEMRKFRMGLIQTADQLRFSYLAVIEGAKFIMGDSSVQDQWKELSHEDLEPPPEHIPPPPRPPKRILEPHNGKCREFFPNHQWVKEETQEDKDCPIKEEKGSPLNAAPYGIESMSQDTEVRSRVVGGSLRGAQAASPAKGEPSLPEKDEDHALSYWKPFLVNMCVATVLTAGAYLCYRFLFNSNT

[2] = target: T2, Tyrosine-protein phosphatase non-receptor type 2 (Homo sapiens, UniProt P17706); experiment: Inhibition of TCPTP (unknown origin)
T2 sequence (P17706 whole entry): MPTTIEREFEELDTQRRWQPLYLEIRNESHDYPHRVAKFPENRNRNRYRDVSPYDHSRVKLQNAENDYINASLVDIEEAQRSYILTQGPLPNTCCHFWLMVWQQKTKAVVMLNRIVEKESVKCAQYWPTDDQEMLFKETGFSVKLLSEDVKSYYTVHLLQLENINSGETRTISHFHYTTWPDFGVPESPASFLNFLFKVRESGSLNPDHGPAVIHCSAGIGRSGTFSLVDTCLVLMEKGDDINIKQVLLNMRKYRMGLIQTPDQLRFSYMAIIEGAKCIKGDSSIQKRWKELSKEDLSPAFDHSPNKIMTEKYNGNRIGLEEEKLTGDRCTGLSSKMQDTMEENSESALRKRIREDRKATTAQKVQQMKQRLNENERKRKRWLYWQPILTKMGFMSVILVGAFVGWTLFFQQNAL

[3] = target: T3, Tyrosine-protein phosphatase non-receptor type 11 (Homo sapiens, UniProt Q06124); experiment: Inhibition of SHP2 (unknown origin) using 3-O-Methylfluorescein phosphate as substrate preincubated for 3 mins followed by substrate addition
T3 sequence (Q06124 whole entry): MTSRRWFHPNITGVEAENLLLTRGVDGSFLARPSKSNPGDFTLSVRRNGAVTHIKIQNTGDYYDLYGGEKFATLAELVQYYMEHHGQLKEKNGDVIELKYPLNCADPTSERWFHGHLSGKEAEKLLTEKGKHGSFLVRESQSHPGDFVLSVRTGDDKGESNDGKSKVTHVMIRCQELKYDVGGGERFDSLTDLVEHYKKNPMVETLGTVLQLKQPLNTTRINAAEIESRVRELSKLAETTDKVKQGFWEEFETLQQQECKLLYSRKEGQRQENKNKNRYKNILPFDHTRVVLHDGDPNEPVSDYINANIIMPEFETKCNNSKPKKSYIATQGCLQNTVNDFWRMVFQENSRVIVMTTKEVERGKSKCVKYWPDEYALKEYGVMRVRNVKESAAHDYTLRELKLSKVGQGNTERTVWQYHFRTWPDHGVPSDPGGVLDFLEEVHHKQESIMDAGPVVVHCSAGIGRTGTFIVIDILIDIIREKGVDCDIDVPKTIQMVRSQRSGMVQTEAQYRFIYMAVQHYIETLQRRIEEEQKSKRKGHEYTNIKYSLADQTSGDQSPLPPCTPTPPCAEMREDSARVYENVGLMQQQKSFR

[4] = target: T4, M-phase inducer phosphatase 2 (Homo sapiens, UniProt P30305); experiment: Inhibition of CDC25B (unknown origin) using 3-O-Methylfluorescein phosphate as substrate preincubated for 3 mins followed by substrate addition
T4 sequence (P30305 whole entry): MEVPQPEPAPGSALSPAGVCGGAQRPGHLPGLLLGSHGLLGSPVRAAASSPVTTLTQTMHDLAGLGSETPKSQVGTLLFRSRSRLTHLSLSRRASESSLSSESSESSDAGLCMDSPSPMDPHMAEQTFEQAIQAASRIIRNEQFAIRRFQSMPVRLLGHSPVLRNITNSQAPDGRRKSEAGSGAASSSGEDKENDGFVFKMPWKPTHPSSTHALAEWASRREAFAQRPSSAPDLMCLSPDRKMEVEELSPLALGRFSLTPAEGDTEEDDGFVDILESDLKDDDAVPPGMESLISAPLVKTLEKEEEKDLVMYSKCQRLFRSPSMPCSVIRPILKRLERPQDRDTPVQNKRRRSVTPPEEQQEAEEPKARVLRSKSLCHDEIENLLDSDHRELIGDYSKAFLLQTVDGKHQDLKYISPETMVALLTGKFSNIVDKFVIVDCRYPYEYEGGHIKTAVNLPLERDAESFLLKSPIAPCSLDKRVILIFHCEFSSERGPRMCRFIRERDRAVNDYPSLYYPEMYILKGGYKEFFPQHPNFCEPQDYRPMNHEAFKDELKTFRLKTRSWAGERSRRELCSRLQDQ

[5] = target: Receptor-type tyrosine-protein phosphatase F (Homo sapiens, UniProt P10586); experiment: Inhibition of LAR (unknown origin) using 3-O-Methylfluorescein phosphate as substrate preincubated for 3 mins followed by substrate addition
Sequence of Receptor-type tyrosine-protein phosphatase F (P10586 whole entry): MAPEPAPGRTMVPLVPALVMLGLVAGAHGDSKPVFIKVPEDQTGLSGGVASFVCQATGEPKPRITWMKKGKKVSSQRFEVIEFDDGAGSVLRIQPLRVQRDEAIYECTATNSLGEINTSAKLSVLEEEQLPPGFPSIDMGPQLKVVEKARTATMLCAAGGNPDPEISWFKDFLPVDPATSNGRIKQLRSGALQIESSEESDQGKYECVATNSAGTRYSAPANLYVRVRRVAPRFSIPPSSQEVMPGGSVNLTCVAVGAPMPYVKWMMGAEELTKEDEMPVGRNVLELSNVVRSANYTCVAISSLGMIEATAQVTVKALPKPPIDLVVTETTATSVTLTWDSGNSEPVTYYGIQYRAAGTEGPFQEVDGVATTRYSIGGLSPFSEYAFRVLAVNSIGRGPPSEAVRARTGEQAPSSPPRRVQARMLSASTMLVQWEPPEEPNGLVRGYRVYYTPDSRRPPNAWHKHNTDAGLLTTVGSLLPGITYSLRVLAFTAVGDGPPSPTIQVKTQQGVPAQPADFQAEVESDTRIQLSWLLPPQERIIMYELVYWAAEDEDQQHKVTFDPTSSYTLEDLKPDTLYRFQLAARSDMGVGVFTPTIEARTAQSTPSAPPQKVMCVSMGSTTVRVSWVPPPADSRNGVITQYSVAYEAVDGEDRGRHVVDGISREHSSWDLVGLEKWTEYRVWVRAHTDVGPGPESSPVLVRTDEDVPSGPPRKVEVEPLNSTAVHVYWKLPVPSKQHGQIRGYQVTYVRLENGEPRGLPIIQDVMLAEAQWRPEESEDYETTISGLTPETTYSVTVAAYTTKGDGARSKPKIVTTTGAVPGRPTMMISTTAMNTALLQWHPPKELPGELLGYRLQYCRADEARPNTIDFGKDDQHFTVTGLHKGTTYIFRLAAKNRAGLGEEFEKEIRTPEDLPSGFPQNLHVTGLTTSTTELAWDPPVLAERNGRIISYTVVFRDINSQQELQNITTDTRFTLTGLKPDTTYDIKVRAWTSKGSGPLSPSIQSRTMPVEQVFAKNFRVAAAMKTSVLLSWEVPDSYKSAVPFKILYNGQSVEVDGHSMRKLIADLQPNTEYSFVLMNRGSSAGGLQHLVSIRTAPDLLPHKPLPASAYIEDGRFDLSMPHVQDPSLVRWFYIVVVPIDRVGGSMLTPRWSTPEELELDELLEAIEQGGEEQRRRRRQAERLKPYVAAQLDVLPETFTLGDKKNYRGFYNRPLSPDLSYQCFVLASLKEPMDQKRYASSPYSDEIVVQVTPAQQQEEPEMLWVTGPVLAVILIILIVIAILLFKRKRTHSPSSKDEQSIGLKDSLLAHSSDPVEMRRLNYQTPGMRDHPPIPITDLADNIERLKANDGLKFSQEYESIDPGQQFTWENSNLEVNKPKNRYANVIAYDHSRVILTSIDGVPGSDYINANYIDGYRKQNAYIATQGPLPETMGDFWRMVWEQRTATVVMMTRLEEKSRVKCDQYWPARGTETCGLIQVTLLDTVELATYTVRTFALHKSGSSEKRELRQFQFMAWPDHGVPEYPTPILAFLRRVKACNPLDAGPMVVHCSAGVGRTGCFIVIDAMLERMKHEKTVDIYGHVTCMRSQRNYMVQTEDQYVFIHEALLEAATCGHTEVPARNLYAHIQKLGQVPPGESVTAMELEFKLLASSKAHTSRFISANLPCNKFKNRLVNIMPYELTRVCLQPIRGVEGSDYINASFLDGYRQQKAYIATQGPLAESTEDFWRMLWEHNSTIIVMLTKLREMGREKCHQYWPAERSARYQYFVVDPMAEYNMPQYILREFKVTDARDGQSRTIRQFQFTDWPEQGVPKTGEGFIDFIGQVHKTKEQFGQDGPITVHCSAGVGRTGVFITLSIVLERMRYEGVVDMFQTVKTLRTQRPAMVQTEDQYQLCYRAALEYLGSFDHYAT

[6] = target: Tyrosine-protein phosphatase non-receptor type 6 (Homo sapiens, UniProt P29350); experiment: Inhibition of SHP1 (unknown origin) using 3-O-Methylfluorescein phosphate as substrate preincubated for 3 mins followed by substrate addition
Sequence of Tyrosine-protein phosphatase non-receptor type 6 (P29350 whole entry): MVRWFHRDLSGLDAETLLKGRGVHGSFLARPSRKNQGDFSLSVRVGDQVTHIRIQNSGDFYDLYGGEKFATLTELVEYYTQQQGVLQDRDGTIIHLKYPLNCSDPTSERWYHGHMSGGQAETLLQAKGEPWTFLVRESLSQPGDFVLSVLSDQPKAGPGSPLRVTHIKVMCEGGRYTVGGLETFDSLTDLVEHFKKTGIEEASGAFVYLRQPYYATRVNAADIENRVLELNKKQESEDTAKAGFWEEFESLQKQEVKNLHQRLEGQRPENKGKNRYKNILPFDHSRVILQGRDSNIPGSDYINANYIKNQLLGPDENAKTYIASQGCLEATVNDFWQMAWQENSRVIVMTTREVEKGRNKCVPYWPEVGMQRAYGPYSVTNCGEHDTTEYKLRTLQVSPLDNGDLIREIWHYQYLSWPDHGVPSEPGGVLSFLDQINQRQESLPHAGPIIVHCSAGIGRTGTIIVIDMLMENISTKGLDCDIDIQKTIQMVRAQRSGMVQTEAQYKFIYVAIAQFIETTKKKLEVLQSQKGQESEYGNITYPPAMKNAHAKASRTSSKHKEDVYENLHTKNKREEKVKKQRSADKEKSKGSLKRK

SMILES	pIC50 [1]	pIC50 [2]	pIC50 [3]	pIC50 [4]	pIC50 [5]	pIC50 [6]
CCOC(=O)/C(C)=C\C(C)=C\c1csc([C@H](Cc2ccc(OCc3ccccc3)cc2)NC(=O)c2ccccc2)n1	< 4.44	–	–	–	–	–
CCOC(=O)CNC(=O)/C(C)=C\C(C)=C\c1csc(C(Cc2ccc(OCc3ccccc3)cc2)NC(=O)OC(C)(C)C)n1 (single isomer, unassigned)	4.91	–	–	–	–	–
CCOC(=O)/C(C)=C\C(C)=C\c1csc([C@H](Cc2ccc(OCc3ccccc3)cc2)NC(=O)C(C)C)n1	4.79	–	–	–	–	–
CCOC(=O)/C(C)=C\C(C)=C\c1csc([C@H](Cc2ccc(OCc3ccccc3)cc2)NC(=O)c2cc3ccccc3s2)n1	5.03	–	–	–	–	–
CCOC(=O)/C(C)=C\C(C)=C/c1csc([C@H](Cc2ccc(OCc3ccccc3)cc2)NC(=O)C2CCCCC2)n1	4.89	–	–	–	–	–
CCOC(=O)/C(C)=C\c1csc([C@H](Cc2ccc(OCc3ccccc3)cc2)NC(=O)C2CCCCC2)n1	< 4.40	–	–	–	–	–
CCOC(=O)/C(C)=C\C(C)=C\c1csc([C@H](Cc2ccc(OCc3ccccc3)cc2)NC(=O)c2ccco2)n1	4.74	–	–	–	–	–
CCOC(=O)/C(C)=C/C(C)=C/c1csc([C@H](Cc2ccc(OCc3ccccc3)cc2)NC(=O)C2CCCCC2)n1	4.72	–	–	–	–	–
CCOC(=O)COC(=O)/C(C)=C\C(C)=C\c1csc([C@H](Cc2ccc(OCc3ccccc3)cc2)NC(=O)[C@H](Cc2c[nH]c3ccccc23)NC(=O)OC(C)(C)C)n1	5.25	–	–	–	–	–
CCOC(=O)COC(=O)/C(C)=C\C(C)=C\c1csc([C@H](Cc2ccc(OCc3ccccc3)cc2)NC(=O)[C@H](Cc2c[nH]c3ccccc23)NC(C)=O)n1	5.68	5.05	< 4.70	5.62	< 4.70	< 4.70
CCOC(=O)CCCCOC(=O)/C(C)=C\C(C)=C\c1csc(C(Cc2ccc(OCc3ccccc3)cc2)NC(=O)OC(C)(C)C)n1 (single isomer, unassigned)	5.02	–	–	–	–	–
CCOC(=O)C(C)CC(C)Cc1csc([C@H](Cc2ccc(OCc3ccccc3)cc2)NC(=O)C2CCCCC2)n1 (stereo partly drawn)	< 4.40	–	–	–	–	–
CCOC(=O)COC(=O)/C(C)=C\C(C)=C\c1csc([C@H](Cc2ccc(OCc3ccccc3)cc2)NC(=O)CCCc2c[nH]c3ccccc23)n1	5.52	4.90	< 4.70	5.59	< 4.70	< 4.70
CCOC(=O)/C(C)=C\C(C)=C\c1csc([C@H](Cc2ccc(OCc3ccccc3)cc2)NC(=O)C2CC2)n1	4.70	–	–	–	–	–
CCOC(=O)COC(=O)/C(C)=C\C(C)=C\c1csc([C@H](Cc2ccc(OCc3ccccc3)cc2)NC(=O)Cc2c[nH]c3ccccc23)n1	5.23	4.85	< 4.70	5.55	< 4.70	< 4.70
CCCCC(=O)N[C@@H](Cc1ccc(OCc2ccccc2)cc1)c1nc(/C=C(C)/C=C(/C)C(=O)OCC)cs1	4.94	–	–	–	–	–
CCOC(=O)/C(C)=C\C(C)=C\c1csc([C@H](Cc2ccc(OCc3ccccc3)cc2)NC(=O)C2CCCCC2)n1	5.03	4.81	< 4.70	5.41	< 4.70	< 4.70
C/C(=C/C(C)=C/c1csc([C@H](Cc2ccc(OCc3ccccc3)cc2)NC(=O)CCCc2c[nH]c3ccccc23)n1)C(=O)OCC(=O)O	5.61	4.96	< 4.70	5.36	< 4.70	< 4.70
CCOC(=O)COC(=O)/C(C)=C\C(C)=C\c1csc([C@H](Cc2ccc(OCc3ccccc3)cc2)NC(=O)CCc2c[nH]c3ccccc23)n1	5.27	4.89	< 4.70	5.44	< 4.70	< 4.70
C=CCOC(=O)N[C@@H](COC(=O)/C(C)=C\C(C)=C\c1csc([C@H](Cc2ccc(OCc3ccccc3)cc2)NC(=O)OC(C)(C)C)n1)C(=O)N1CCC[C@H]1C(=O)OC(C)(C)C	5.35	5.40	–	–	–	–
C/C(=C/C(C)=C/c1csc([C@H](Cc2ccc(OCc3ccccc3)cc2)NC(=O)CCc2c[nH]c3ccccc23)n1)C(=O)OCC(=O)O	5.63	5.06	4.72	5.32	< 4.70	4.82
COC(=O)CCNC(=O)/C(C)=C\C(C)=C\c1csc(C(Cc2ccc(OCc3ccccc3)cc2)NC(=O)OC(C)(C)C)n1 (single isomer, unassigned)	4.80	–	–	–	–	–

The next lines start with the values.

pIC50 [1]	pIC50 [2]	pIC50 [3]	pIC50 [4]	pIC50 [5]	pIC50 [6]	SMILES
4.90	–	–	–	–	–	CCOC(=O)CCCOC(=O)/C(C)=C\C(C)=C\c1csc(C(Cc2ccc(OCc3ccccc3)cc2)NC(=O)OC(C)(C)C)n1 (single isomer, unassigned)
4.62	–	–	–	–	–	CCOC(=O)/C(C)=C/C(C)=C\c1csc([C@H](Cc2ccc(OCc3ccccc3)cc2)NC(=O)C2CCCCC2)n1
5.15	–	–	–	–	–	CCOC(=O)COC(=O)/C(C)=C\C(C)=C\c1csc(C(Cc2ccc(OCc3ccccc3)cc2)NC(=O)OC(C)(C)C)n1 (single isomer, unassigned)
< 4.40	–	–	–	–	–	CCOC(=O)/C(C)=C/c1csc([C@H](Cc2ccc(OCc3ccccc3)cc2)NC(=O)C2CCCCC2)n1
5.52	4.75	< 4.70	5.27	< 4.70	< 4.70	CC(=O)N[C@@H](Cc1c[nH]c2ccccc12)C(=O)N[C@@H](Cc1ccc(OCc2ccccc2)cc1)c1nc(/C=C(C)/C=C(/C)C(=O)OCC(=O)O)cs1
5.05	–	–	–	–	–	CCOC(=O)/C(C)=C\C(C)=C\c1csc([C@H](Cc2ccc(OCc3ccccc3)cc2)NC(=O)c2ccc(F)cc2)n1
5.43	5.00	< 4.70	5.31	< 4.70	< 4.70	C/C(=C/C(C)=C/c1csc([C@H](Cc2ccc(OCc3ccccc3)cc2)NC(=O)Cc2c[nH]c3ccccc23)n1)C(=O)OCC(=O)O
< 4.40	–	–	–	–	–	CCOC(=O)c1csc([C@H](Cc2ccc(OCc3ccccc3)cc2)NC(=O)C2CCCCC2)n1
5.80	5.34	< 4.70	5.47	< 4.70	< 4.70	C/C(=C/C(C)=C/c1csc([C@H](Cc2ccc(OCc3ccccc3)cc2)NC(=O)[C@H](Cc2c[nH]c3ccccc23)NC(=O)OC(C)(C)C)n1)C(=O)OCC(=O)O
4.75	–	–	–	–	–	CCOC(=O)/C(C)=C\C(C)=C\c1csc([C@H](Cc2ccc(OCc3ccccc3)cc2)NC(=O)C2CCCC2)n1
